Experimental data: patent publication US9567325B2, “Carboxamide compounds and their use as calpain inhibitors” (AbbVie Deutschland GmbH & Co. KG, priority 2009, dated 2017)

Legend:
[1] = target: T1, cathepsin B isolated from human liver (Homo sapiens, UniProt P07858); experiment: Cathepsin B enzyme inhibition in vitro, kinetic fluorescence assay (selectivity vs calpain); type: biochemical; settings: ratio of Ki values; Z-Phe-Arg-AMC substrate, pH 6.0
T1 construct: 0.25 nM cathepsin B—isolated from human liver (Calbiochem #219362); purchased Calbiochem 219362; host or cells: human liver (natural source)
Method: (§1) The following solutions and buffers were employed: • HBS (for 40 ml): 800 μl 1M HEPES; 2.16 ml 100 mM KCl; 4.8 ml 1M NaCl; 3.59 ml 5% glucose; 60 μl 1M MgSO4; 400 μl 100 mM Na pyruvate, 28.19 ml water; pH 7.2-7.5. • lysis buffer (for 20 ml): 400 μl 1M Tris pH 8.2; 2.74 ml 1M NaCl; 520 μl 0.5M EDTA; 2 ml 10% triton X-100; 0.8 ml (=1:25) CompletePlus (1 tablet/2 ml H2O); 200 μl 100 mM Pefabloc; 13.34 ml water, pH 8.2. • TBST (10×) (for 11): 100 mM Tris (12.1 g); 1.5M NaCl (87 g); 1% Tween 20 (10 g), adjusted to pH 8. I Enzyme Inhibition In Vitro: • Testing for blockade of the corresponding enzymic activities was carried out by means of kinetic fluorescence assays (excitation 390 nm, emission 460 nm). • Apparent Ki values were calculated from the experimentally determined IC50 values by the Cheng-Prussoff relation assuming a reversible competitive enzyme inhibition. The Km values of the substrates used under the assay conditions indicated above were: 90 μM (Z-Phe-Arg-AMC, cathepsin B), 10 μM (Z-Gly-Pro-Arg-AMC, cathepsin K), 2 μM (Z-Phe-Arg-AMC, cathepsin L), and 30 μM (Z-Val-Val-Arg-AMC, cathepsin S). • The indicated Ki values are averages of the inhibition constants calculated on the basis of 2 to 4 independent dose-effect plots. • The following assays were used: • 1. Calpain I: • 20 nM calpain-1-isolated from human erythrocytes (Calbiochem #208713), 100 μM Suc-Leu-Tyr-AMC (Bachem #1-1355) as substrate in buffer with 62 mM imidazole, 0.3 mM CaCl2, 0.10% CHAPS, 0.05% BSA, 1 mM DTT at pH 7.3 and room temperature. • 2. Cathepsin B: • 0.25 nM cathepsin B—isolated from human liver (Calbiochem #219362), 100 μM Z-Phe-Arg-AMC (Bachem #1-1160) as substrate 50 mM MES, 2 mM EDTA, 0.05% Brij 35, 2.5 mM L-cysteine, pH 6.0, room temperature. • 3. Cathepsin K: • 3 nM cathepsin K-activated from recombinant human procathepsin K from E. coli (Calbiochem #342001), 10 μM Z-Gly-Pro-Arg-AMC (Biomol #P-142) as substrate in 50 mM MES, 2 mM EDTA, 0.05% Brij 35, 2.5 mM L-cysteine, pH 6.0, room temperature. • 4. Cathepsin L: • 1 nM cathepsin L—isolated from human liver (Calbiochem #219402), 2 μM Z-Phe-Arg-AMC (Bachem #1-1160) as substrate in 50 mM MES, 2 mM EDTA, 0.05% Brij 35, 2.5 mM L-cysteine, pH 6.0, room temperature. • 5. Cathepsin S: • 0.5 nM recombinant human cathepsin S from E. coli (Calbiochem #219343), 20 μM Z-Val-Val-Arg-AMC (Bachem #I-1540) as substrate in 50 mM MES, 2 mM EDTA, 0.05% Brij 35, 2.5 mM L-cysteine, pH 6.0, room temperature. • The results of the in vitro determination are indicated in Table 1. The following abbreviations are used in Table 1: • In the “Calpain activity” column, +++ stands for a calpain Ki (Ki(calpain)) of ≦40 nM, and ++ means: 40 nM<Ki(Calpain)≦100 nM and + means 100 nM<Ki(Calpain)≦300 nM. • The “Sel. cat. B” column indicates the Ki(cathepsin B)/Ki(calpain) ratio. In this connection, ++ means a Ki(cathepsin B)/Ki(calpain) ratio of ≧30 and + means 10≦Ki(cathepsin B)/Ki(calpain)<30. • The “Sel. cat. K” column indicates the Ki(cathepsin K)/Ki(calpain) ratio. In this connection, ++ means a Ki(cathepsin K)/Ki(calpain) ratio of ≧30 and + means 10≦Ki(cathepsin K)/Ki(calpain)<30. • The “Sel. cat. L” column indicates the Ki(cathepsin L)/Ki(calpain) ratio. In this connection, ++ means a Ki(cathepsin L)/Ki(calpain) ratio of ≧50 and + means 30≦Ki(cathepsin L)/Ki(calpain)<50. • The “Sel. cat. S” column indicates the Ki(cathepsin S)/Ki(calpain) ratio. In this connection, ++ means a Ki(cathepsin S)/Ki(calpain) ratio of ≧100 and + means 50≦Ki(cathepsin S)/Ki(calpain)<100.

[2] = target: T2, recombinant human cathepsin S (Homo sapiens, UniProt P25774); experiment: Cathepsin S enzyme inhibition in vitro, kinetic fluorescence assay (selectivity vs calpain); type: biochemical; settings: ratio of Ki values; Z-Val-Val-Arg-AMC substrate, pH 6.0
T2 construct: purchased Calbiochem 219343; host or cells: E. coli
T2 sequence (P25774 115-331): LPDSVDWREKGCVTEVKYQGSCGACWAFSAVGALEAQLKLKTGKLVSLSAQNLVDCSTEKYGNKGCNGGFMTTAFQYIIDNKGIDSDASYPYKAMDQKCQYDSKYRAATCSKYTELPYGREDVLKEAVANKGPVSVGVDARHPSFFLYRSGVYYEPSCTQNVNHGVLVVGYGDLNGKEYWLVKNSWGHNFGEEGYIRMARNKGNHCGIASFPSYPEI
Method: as §1

[3] = target: T3, calpain-1 isolated from human erythrocytes (Homo sapiens, UniProt P07384); experiment: Calpain I enzyme inhibition in vitro, kinetic fluorescence assay; type: biochemical; settings: apparent Ki calculated from IC50 by Cheng-Prussoff; 100 μM Suc-Leu-Tyr-AMC, pH 7.3, room temperature
T3 construct: 20 nM calpain-1-isolated from human erythrocytes (Calbiochem #208713); purchased Calbiochem 208713; host or cells: human erythrocytes (natural source)
T3 sequence (P07384 1-714): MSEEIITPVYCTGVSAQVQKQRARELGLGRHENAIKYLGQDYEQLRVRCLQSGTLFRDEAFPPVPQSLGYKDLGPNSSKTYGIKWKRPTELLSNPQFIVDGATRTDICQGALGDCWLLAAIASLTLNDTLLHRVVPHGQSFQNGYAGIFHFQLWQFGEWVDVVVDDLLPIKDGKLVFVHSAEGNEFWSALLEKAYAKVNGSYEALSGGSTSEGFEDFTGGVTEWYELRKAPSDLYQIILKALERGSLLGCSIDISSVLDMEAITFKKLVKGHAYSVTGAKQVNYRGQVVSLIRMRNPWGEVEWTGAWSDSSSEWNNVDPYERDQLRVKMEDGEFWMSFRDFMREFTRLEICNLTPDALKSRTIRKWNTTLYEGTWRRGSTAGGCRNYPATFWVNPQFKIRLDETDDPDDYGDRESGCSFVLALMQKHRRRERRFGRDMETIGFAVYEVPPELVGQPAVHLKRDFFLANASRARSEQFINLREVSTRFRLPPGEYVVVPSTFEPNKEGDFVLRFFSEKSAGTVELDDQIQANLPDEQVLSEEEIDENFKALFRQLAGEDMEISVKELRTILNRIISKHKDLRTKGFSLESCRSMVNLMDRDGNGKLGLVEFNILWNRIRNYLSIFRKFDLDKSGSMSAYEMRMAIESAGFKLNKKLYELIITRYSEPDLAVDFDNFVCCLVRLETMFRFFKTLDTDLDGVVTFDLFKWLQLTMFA
T3 sequence (P04632 1-268 partner): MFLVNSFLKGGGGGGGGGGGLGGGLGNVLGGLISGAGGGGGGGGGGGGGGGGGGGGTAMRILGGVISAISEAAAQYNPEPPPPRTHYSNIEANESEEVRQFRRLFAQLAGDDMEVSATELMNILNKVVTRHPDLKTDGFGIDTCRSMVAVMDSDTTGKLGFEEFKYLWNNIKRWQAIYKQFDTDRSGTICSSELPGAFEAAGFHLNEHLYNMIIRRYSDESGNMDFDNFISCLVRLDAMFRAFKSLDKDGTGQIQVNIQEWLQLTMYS
Method: as §1

[4] = target: T4, cathepsin K activated from recombinant human procathepsin K (Homo sapiens, UniProt P43235); experiment: Cathepsin K enzyme inhibition in vitro, kinetic fluorescence assay (selectivity vs calpain); type: biochemical; settings: ratio of Ki values; Z-Gly-Pro-Arg-AMC substrate, pH 6.0
T4 construct: purchased Calbiochem 342001; host or cells: E. coli
T4 sequence (P43235 115-329): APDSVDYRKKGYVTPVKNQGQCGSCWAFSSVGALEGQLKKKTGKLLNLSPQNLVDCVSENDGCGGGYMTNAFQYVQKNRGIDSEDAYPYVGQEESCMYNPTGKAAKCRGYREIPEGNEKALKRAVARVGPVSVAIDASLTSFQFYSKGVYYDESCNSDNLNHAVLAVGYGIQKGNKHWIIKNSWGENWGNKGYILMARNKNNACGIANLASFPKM
Method: as §1

[5] = target: T5, cathepsin L isolated from human liver (Homo sapiens, UniProt P07711); experiment: Cathepsin L enzyme inhibition in vitro, kinetic fluorescence assay (selectivity vs calpain); type: biochemical; settings: ratio of Ki values; Z-Phe-Arg-AMC substrate, pH 6.0
T5 construct: 1 nM cathepsin L—isolated from human liver (Calbiochem #219402); purchased Calbiochem 219402; host or cells: human liver (natural source)
T5 sequence (P07711 114-333): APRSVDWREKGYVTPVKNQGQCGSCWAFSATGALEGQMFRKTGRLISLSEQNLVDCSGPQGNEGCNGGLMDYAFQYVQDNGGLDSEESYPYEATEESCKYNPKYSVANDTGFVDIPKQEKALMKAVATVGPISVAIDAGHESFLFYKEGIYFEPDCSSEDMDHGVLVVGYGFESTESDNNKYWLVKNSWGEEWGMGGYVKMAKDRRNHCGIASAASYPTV
Method: as §1

[6] = Cytosolic clearance in cynomolgus monkey liver cytosol; type: in vitro ADME; settings: female; 0.5 μM compound, 1 mg/ml cynomolgus monkey liver cytosol, 37° C., pH 7.5; read-out: cyno cytCL (cytosolic clearance)
[7] = Cytosolic clearance in human liver cytosol; type: in vitro ADME; settings: 0.5 μM compound, 1 mg/ml human liver cytosol, 37° C., pH 7.5; read-out: human cytCL (cytosolic clearance)

Row | Ki [3] [nM] | microsomal CLint at 0.5 μM [6] [µL/min/mg] | microsomal CLint at 0.5 μM [7] [µL/min/mg] | Compound | Sel cat. B (Ki(cathepsin B)/Ki(calpain) ratio) [1] | Sel cat. S (Ki(cathepsin S)/Ki(calpain) ratio) [2] | Sel cat. K (Ki(cathepsin K)/Ki(calpain) ratio) [4] | Sel cat. L (Ki(cathepsin L)/Ki(calpain) ratio) [5]
1 | ≤ 40 |  |  | NC(=O)C(=O)C(Cc1ccccc1)NC(=O)c1cccnc1-c1csc(-c2ccccc2Cl)n1 (stereo not drawn) [Example 8, N-(4-Amino-3,4-dioxo-1-phenylbutan-2-yl)-2-[2-(2-chlorophenyl)-1,3-thiazol-4-yl]pyridine-3-carboxamide] | ++ (++ means a Ki(cathepsin B)/Ki(calpain) ratio of ≧30) | ++ (++ means a Ki(cathepsin S)/Ki(calpain) ratio of ≧100) | + (+ means 10≦Ki(cathepsin K)/Ki(calpain)<30) | ++ (++ means a Ki(cathepsin L)/Ki(calpain) ratio of ≧50)
2 | 40 to 100 |  |  | NC(=O)C(=O)C(Cc1ccccc1)NC(=O)c1cccnc1-c1csc(-c2ccc3ccccc3c2)n1 (stereo not drawn) [Example 9, N-(4-Amino-3,4-dioxo-1-phenylbutan-2-yl)-2-[2-(naphthalen-2-yl)-1,3-thiazol-4-yl]pyridine-3-carboxamide] | ++ (++ means a Ki(cathepsin B)/Ki(calpain) ratio of ≧30) | ++ (++ means a Ki(cathepsin S)/Ki(calpain) ratio of ≧100) | + (+ means 10≦Ki(cathepsin K)/Ki(calpain)<30) | ++ (++ means a Ki(cathepsin L)/Ki(calpain) ratio of ≧50)
3 | 100 to 300 | < 18 | < 14 | O=C(NC1CC1)C(=O)C(Cc1ccccc1)NC(=O)c1cccnc1-c1csc(-c2ccccc2)n1 (stereo not drawn) [Example 13, N-(4-(Cyclopropylamino)-3,4-dioxo-1-phenylbutan-2-yl)-2-(2-phenylthiazol-4-yl)nicotinamide] | ++ (++ means a Ki(cathepsin B)/Ki(calpain) ratio of ≧30) |  | + (+ means 10≦Ki(cathepsin K)/Ki(calpain)<30) | + (+ means 30≦Ki(cathepsin L)/Ki(calpain)<50)
4 | 100 to 300 | < 18 | < 14 | CONC(=O)C(=O)C(Cc1ccccc1)NC(=O)c1cccnc1-c1csc(-c2ccccc2)n1 (stereo not drawn) [Example 14, N-(4-(Methoxyamino)-3,4-dioxo-1-phenylbutan-2-yl)-2-(2-phenylthiazol-4-yl)nicotinamide] |  |  |  | 
5 | 40 to 100 |  |  | NC(=O)C(=O)C(Cc1ccc(F)cc1)NC(=O)c1cccnc1-c1csc(-c2ccccc2)n1 (stereo not drawn) [Example 15, N-(4-Amino-1-(4-fluorophenyl)-3,4-dioxobutan-2-yl)-2-(2-phenylthiazol-4-yl)nicotinamide] | ++ (++ means a Ki(cathepsin B)/Ki(calpain) ratio of ≧30) | ++ (++ means a Ki(cathepsin S)/Ki(calpain) ratio of ≧100) | + (+ means 10≦Ki(cathepsin K)/Ki(calpain)<30) | ++ (++ means a Ki(cathepsin L)/Ki(calpain) ratio of ≧50)
